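The compound was tested at five concentrations on cells cultured in 96-well plates, with a 48-hour exposure period. GI50 = concentration required for 50% inhibition of growth.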 Activity calls are given as the source filed them. Cut-off read from the data, not from the text of the source: active = GI50 up to about 1.1 µM and inactive = higher. *1 amine or outer side, *2 acyl side, *3 side chain or, on linkers, in order; H or OH if unused. Where a SMILES comes first, the peptide text is derived from it. The star is where a group is joined. γGlu = O=C(O)[CH](CCC(=O)[*:2])N[*:1]; NHOH = ON*
Assays:
Test in all cases: inhibition of tumour cell growth, NCI panel, 48 h
[1] = test system: A498
[2] = test system: A549
[3] = test system: EKVX
[4] = test system: HCC 2998
[5] = test system: IGROV-1
[6] = test system: K562
[7] = test system: M14
[8] = test system: MDA-N
[9] = test system: NCI-H226
[10] = test system: OVCAR-3
[11] = test system: OVCAR-8
[12] = test system: SF-268
[13] = test system: SK-OV-3
[14] = test system: SNB-19
[15] = test system: T47D
[16] = test system: HL-60
[17] = test system: Hs-578T
[18] = test system: Malme-3M

Row | Compound | GI50 [1] | GI50 [2] | GI50 [3] | GI50 [4] | GI50 [5] | GI50 [6] | GI50 [7] | GI50 [8] | GI50 [9] | GI50 [10] | GI50 [11] | GI50 [12] | GI50 [13] | GI50 [14] | GI50 [15] | GI50 [16] | GI50 [17] | GI50 [18]
1 | CNC(=O)Oc1ccc(-c2cn3cc(OC(=O)NC)ccc3n2)cc1 | 66.4 µM (inactive) | 44.1 µM (inactive) | 96.4 µM (inactive) | 49.3 µM (inactive) | 54 µM (inactive) | 22.6 µM (inactive) | 41.7 µM (inactive) | 32.8 µM (inactive) | > 100 µM (inactive) | 67.8 µM (inactive) | 49.9 µM (inactive) | 19.3 µM (inactive) | > 100 µM (inactive) | 43.3 µM (inactive) | 31.3 µM (inactive) | – | – | –
2 | C=CC[C@@]1(C(=O)OC)[C@H](Sc2ccccc2)C1(C)C | 31.3 µM (inactive) | 32.5 µM (inactive) | 33.3 µM (inactive) | 27 µM (inactive) | 26.9 µM (inactive) | – | 56.8 µM (inactive) | – | 35.5 µM (inactive) | 44.3 µM (inactive) | 53.8 µM (inactive) | 85.5 µM (inactive) | > 100 µM (inactive) | > 100 µM (inactive) | > 100 µM (inactive) | 16.2 µM (inactive) | 55.6 µM (inactive) | 29.4 µM (inactive)
3 | C[C@@H]1OC(=O)C[C@H]2CC(=O)N(CCC3CN(S(=O)(=O)C(F)(F)F)c4ccccc43)C[C@@H]21 (stereo not given in full) | > 100 µM (inactive) | > 100 µM (inactive) | > 100 µM (inactive) | > 100 µM (inactive) | 69.7 µM (inactive) | > 100 µM (inactive) | > 100 µM (inactive) | – | – | > 100 µM (inactive) | – | – | > 100 µM (inactive) | > 100 µM (inactive) | – | – | 85.1 µM (inactive) | 82.4 µM (inactive)
4 | CCOP1(=O)CC(C)=C(Cl)C(OC)C1 (stereo not given) | > 100 µM (inactive) | > 100 µM (inactive) | > 100 µM (inactive) | > 100 µM (inactive) | > 100 µM (inactive) | 30.5 µM (inactive) | > 100 µM (inactive) | > 100 µM (inactive) | > 100 µM (inactive) | > 100 µM (inactive) | > 100 µM (inactive) | > 100 µM (inactive) | > 100 µM (inactive) | > 100 µM (inactive) | – | 57.1 µM (inactive) | > 100 µM (inactive) | > 100 µM (inactive)
5 | O=P1(O)C=CC2(CCCC2)O1 | > 100 µM (inactive) | > 100 µM (inactive) | > 100 µM (inactive) | > 100 µM (inactive) | > 100 µM (inactive) | > 100 µM (inactive) | > 100 µM (inactive) | > 100 µM (inactive) | – | > 100 µM (inactive) | > 100 µM (inactive) | > 100 µM (inactive) | > 100 µM (inactive) | > 100 µM (inactive) | > 100 µM (inactive) | > 100 µM (inactive) | – | > 100 µM (inactive)
6 | C=C1CN=C(Nc2ccc(Cl)cc2)S1 | > 100 µM (inactive) | > 100 µM (inactive) | > 100 µM (inactive) | > 100 µM (inactive) | > 100 µM (inactive) | 96.8 µM (inactive) | > 100 µM (inactive) | > 100 µM (inactive) | – | > 100 µM (inactive) | > 100 µM (inactive) | > 100 µM (inactive) | > 100 µM (inactive) | > 100 µM (inactive) | > 100 µM (inactive) | > 10 µM (inactive) | > 100 µM (inactive) | > 100 µM (inactive)
7 | O=C1c2ccccc2C(=O)c2nn(N=P(CP(=Nn3nc4c(n3)C(=O)c3ccccc3C4=O)(c3ccccc3)c3ccccc3)(c3ccccc3)c3ccccc3)nc21 | > 100 µM (inactive) | > 100 µM (inactive) | > 100 µM (inactive) | > 100 µM (inactive) | > 100 µM (inactive) | > 100 µM (inactive) | > 100 µM (inactive) | > 100 µM (inactive) | – | > 100 µM (inactive) | > 100 µM (inactive) | > 100 µM (inactive) | > 100 µM (inactive) | > 100 µM (inactive) | > 100 µM (inactive) | 36.3 µM (inactive) | > 100 µM (inactive) | > 100 µM (inactive)
8 | CSc1c(C#N)c2n(c3ccccc13)c1ccccc1[n+]2C | 21 µM (inactive) | 24.1 µM (inactive) | 19.1 µM (inactive) | 27.9 µM (inactive) | 33.2 µM (inactive) | – | 29.3 µM (inactive) | 26.2 µM (inactive) | – | 37.4 µM (inactive) | 24 µM (inactive) | 28.5 µM (inactive) | – | > 10 µM (inactive) | 30.1 µM (inactive) | 20.3 µM (inactive) | 30.5 µM (inactive) | 16 µM (inactive)
9 | Cc1c2c(c(C)c3c4c(oc13)CCCC4)C=NCC2 | 17 µM (inactive) | 17 µM (inactive) | 12.7 µM (inactive) | 21.1 µM (inactive) | 13.6 µM (inactive) | 11.1 µM (inactive) | 20.2 µM (inactive) | – | 14.2 µM (inactive) | 14.9 µM (inactive) | 10.6 µM (inactive) | 20.2 µM (inactive) | 20.7 µM (inactive) | 22.8 µM (inactive) | 35.6 µM (inactive) | 19.7 µM (inactive) | 17 µM (inactive) | 16 µM (inactive)
10 | c1ccc2c(c1)NC(C1OC3CCCN3C1C1Nc3ccccc3S1)S2 (stereo not given) | > 100 µM (inactive) | > 100 µM (inactive) | > 100 µM (inactive) | > 100 µM (inactive) | > 100 µM (inactive) | 31 µM (inactive) | > 100 µM (inactive) | – | – | 46.5 µM (inactive) | 52.1 µM (inactive) | > 100 µM (inactive) | > 100 µM (inactive) | > 100 µM (inactive) | – | 20.6 µM (inactive) | > 100 µM (inactive) | > 100 µM (inactive)
11 | O=C1c2ccccc2-c2nc(/C=C/c3ccccc3)cc3c2c1nc1ccccc13 | 60.1 µM (inactive) | 30.6 µM (inactive) | 53.8 µM (inactive) | 20.4 µM (inactive) | 20.4 µM (inactive) | 3.47 µM (inactive) | 26.2 µM (inactive) | – | 69.2 µM (inactive) | 0.265 µM (active) | 24.3 µM (inactive) | 65 µM (inactive) | 34.1 µM (inactive) | 80.5 µM (inactive) | 48.8 µM (inactive) | – | 12.3 µM (inactive) | –
12 | CCOC(=O)C(NC(=O)Nc1ccccc1F)(OC)C(F)(F)F (stereo not given) | > 100 µM (inactive) | > 100 µM (inactive) | > 100 µM (inactive) | > 100 µM (inactive) | > 100 µM (inactive) | > 100 µM (inactive) | > 100 µM (inactive) | > 100 µM (inactive) | – | – | > 100 µM (inactive) | > 100 µM (inactive) | > 100 µM (inactive) | > 100 µM (inactive) | > 100 µM (inactive) | > 100 µM (inactive) | > 100 µM (inactive) | –
13 | NC(=O)c1c(NC=O)ncn1C1OCC(O)C(O)C1O (stereo not given) | – | > 100 µM (inactive) | > 100 µM (inactive) | – | > 100 µM (inactive) | > 100 µM (inactive) | – | > 100 µM (inactive) | > 100 µM (inactive) | > 100 µM (inactive) | > 100 µM (inactive) | > 100 µM (inactive) | > 100 µM (inactive) | > 100 µM (inactive) | > 100 µM (inactive) | > 100 µM (inactive) | > 100 µM (inactive) | > 100 µM (inactive)
14 | CCCCCCCCCC[C@@H](O)[C@@H]1CC[C@@H]([C@@H]2CC[C@@H]([C@@H](O)CCCCCCCCCCC(O)CC3=CC(C)OC3=O)O2)O1 (stereo not given in full) | 5.61 µM (inactive) | 2.53 µM (inactive) | 3.03 µM (inactive) | 4.84 µM (inactive) | > 10 µM (inactive) | 0.248 µM (active) | > 10 µM (inactive) | – | 0.173 µM (active) | – | 4.43 µM (inactive) | > 10 µM (inactive) | > 10 µM (inactive) | – | 0.984 µM (active) | 0.116 µM (active) | > 10 µM (inactive) | 1.81 µM (inactive)
15 | OC[C@H]1CCCC1O (stereo not given in full) | > 100 µM (inactive) | > 100 µM (inactive) | – | > 100 µM (inactive) | > 100 µM (inactive) | > 100 µM (inactive) | > 100 µM (inactive) | > 100 µM (inactive) | > 100 µM (inactive) | > 100 µM (inactive) | > 100 µM (inactive) | > 100 µM (inactive) | – | > 100 µM (inactive) | > 100 µM (inactive) | > 100 µM (inactive) | – | > 100 µM (inactive)
16 | C[B@@-]1(c2ccc(C(F)(F)F)cc2)N[C@@H](Cc2ccccc2)C(=O)O1 | > 100 µM (inactive) | > 100 µM (inactive) | > 100 µM (inactive) | > 100 µM (inactive) | > 100 µM (inactive) | > 100 µM (inactive) | > 100 µM (inactive) | > 100 µM (inactive) | > 100 µM (inactive) | > 100 µM (inactive) | > 100 µM (inactive) | > 100 µM (inactive) | > 100 µM (inactive) | > 100 µM (inactive) | > 100 µM (inactive) | 31.8 µM (inactive) | – | > 100 µM (inactive)
17 | NC(CCC(=O)NC(CCC(=O)NO)C(=O)NCC(=O)O)C(=O)O (stereo not given) (γGlu-Glu(NHOH)-Gly-OH; configuration not given here) | > 100 µM (inactive) | > 100 µM (inactive) | > 100 µM (inactive) | > 100 µM (inactive) | > 100 µM (inactive) | > 100 µM (inactive) | > 100 µM (inactive) | > 100 µM (inactive) | > 100 µM (inactive) | > 100 µM (inactive) | > 100 µM (inactive) | > 100 µM (inactive) | > 100 µM (inactive) | > 100 µM (inactive) | > 100 µM (inactive) | > 100 µM (inactive) | – | –
